# Measured values: ChEMBL document CHEMBL4011596, “Design, synthesis, and biological evaluation of a highly water-soluble psoralen-based photosensitizer” (Bioorg Med Chem, 2017)
# Calls of active or inactive are those of the source. The calls are words filed in the database; no cut-off is given here.
# Legend:
# [1] = system: BALB/3T3; test: Photocytotoxicity against mouse BALB/3T3 cells at >42 uM preincubated for 48 hrs followed by 3.3 J/cm2 UV light irradiation for 500 sec measured after 18 hrs by Alamar blue assay; type: functional, cell-based
# [2] = Induction of singlet oxygen production in DMSO assessed as decrease in DPBF level by measuring quantum yield after irradiation with halogen light by spectroscopic analysis relative to control; design: scale not given: the % may be the effect or the level left
# [3] = system: BALB/3T3; test: Photocytotoxicity against mouse BALB/3T3 cells assessed as cell death at 2.9 uM preincubated for 48 hrs followed by 3.3 J/cm2 UV light irradiation for 500 sec measured after 18 hrs by Alamar blue assay relative to control; type: functional
SMILES,Activity [1],Activity [2] [%],Activity [3] [%]
O=c1ccc2cc3ccoc3cc2o1,Active,17,–
COc1c2occc2c(Cn2cc(CO[C@@H]3O[C@H](CO)[C@@H](O)[C@H](O)[C@H]3O)nn2)c2ccc(=O)oc12,Active,24,15
COc1c2occc2c(Cn2cc(CO[C@@H]3O[C@H](CO)[C@H](O)[C@H](O)[C@H]3O)nn2)c2ccc(=O)oc12,Active,24,–
